For 40 compounds, residual activity results are on record in ChEMBL document CHEMBL3039007, “Structure-based identification of OATP1B1/3 inhibitors” (Mol Pharmacol, 2013).

In data set [1] the target is T1, Solute carrier organic anion transporter family member 1B1 (Homo sapiens, UniProt Q9Y6L6).
T1 sequence (Q9Y6L6 whole entry): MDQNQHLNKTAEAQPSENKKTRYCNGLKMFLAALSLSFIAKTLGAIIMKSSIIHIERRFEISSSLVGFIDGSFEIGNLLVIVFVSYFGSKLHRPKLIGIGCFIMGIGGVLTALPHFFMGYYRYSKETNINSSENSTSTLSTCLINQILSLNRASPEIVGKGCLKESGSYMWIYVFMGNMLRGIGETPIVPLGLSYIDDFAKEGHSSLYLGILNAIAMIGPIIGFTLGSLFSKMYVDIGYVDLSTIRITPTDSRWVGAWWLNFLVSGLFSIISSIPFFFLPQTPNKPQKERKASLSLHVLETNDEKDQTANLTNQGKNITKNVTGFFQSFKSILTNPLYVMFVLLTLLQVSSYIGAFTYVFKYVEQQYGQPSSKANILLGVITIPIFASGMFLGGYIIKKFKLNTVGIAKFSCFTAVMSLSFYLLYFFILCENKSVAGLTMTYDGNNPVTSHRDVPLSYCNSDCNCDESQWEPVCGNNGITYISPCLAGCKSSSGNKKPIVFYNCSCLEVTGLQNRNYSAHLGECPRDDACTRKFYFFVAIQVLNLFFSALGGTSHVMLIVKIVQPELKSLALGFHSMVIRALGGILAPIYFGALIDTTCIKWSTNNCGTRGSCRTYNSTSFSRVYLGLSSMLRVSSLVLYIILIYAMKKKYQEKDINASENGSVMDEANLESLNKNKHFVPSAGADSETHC
The conditions noted are these: chinese hamster, cho, 10 µM.

Data set [2] has as its target T2, Solute carrier organic anion transporter family member 1B3 (Homo sapiens, UniProt Q9NPD5).
T2 sequence (Q9NPD5 whole entry): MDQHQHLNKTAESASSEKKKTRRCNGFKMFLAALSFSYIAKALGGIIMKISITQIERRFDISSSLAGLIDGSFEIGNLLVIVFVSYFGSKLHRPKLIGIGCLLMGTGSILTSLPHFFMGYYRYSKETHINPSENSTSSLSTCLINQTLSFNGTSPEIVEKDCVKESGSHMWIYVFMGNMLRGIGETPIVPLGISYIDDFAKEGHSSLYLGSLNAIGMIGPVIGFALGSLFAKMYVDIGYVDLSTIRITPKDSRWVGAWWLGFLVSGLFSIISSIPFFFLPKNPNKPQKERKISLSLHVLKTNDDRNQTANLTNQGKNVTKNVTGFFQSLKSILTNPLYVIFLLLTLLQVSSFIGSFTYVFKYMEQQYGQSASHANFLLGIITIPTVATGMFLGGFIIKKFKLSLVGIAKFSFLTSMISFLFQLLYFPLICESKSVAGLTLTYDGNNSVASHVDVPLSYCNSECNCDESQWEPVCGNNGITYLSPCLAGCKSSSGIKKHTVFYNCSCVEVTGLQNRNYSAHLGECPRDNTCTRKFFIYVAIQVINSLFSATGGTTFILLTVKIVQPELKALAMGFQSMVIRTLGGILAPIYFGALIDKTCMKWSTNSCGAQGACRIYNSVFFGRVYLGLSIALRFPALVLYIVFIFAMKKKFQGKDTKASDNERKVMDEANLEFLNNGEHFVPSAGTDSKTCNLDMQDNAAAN
The conditions noted are these: chinese hamster, cho, 10 µM.

Turning to `C=C1C(=O)O[C@@H]2C[C@@]3(C)CCC[C@H](C)C3=C[C@H]12` [HELENINE], the residual activity in data set [1] is recorded as 116%; in data set [2] it was 115.2%.

Consider `O=C1C=C2CC3(O)COc4c(ccc(O)c4O)C3=C2C=C1O` (stereo not given) [HEMATEIN], for which the residual activity in data set [1] is on record as 65.79%; in data set [2], 73.22%.

On to `Oc1cc2c(cc1O)[C@@H]1c3ccc(O)c(O)c3OC[C@]1(O)C2` [HEMATOXYLIN], for which the residual activity in data set [1] turned out to be 88.87%; in data set [2] it was 91.69%.

For the compound `ClC1=C(Cl)C2(Cl)C3C(Cl)C=CC3C1(Cl)C2(Cl)Cl` (stereo not given) [HEPTACHLOR], the results for the residual activity in data set [1] and in data set [2] were 98.77% and 131.9%, respectively.

In the case of `CC(N)CCCC(C)(C)O.Cl` (stereo not given) [HEPTAMINOL HYDROCHLORIDE], the residual activity was 95.56% in data set [1] and 104.5% in data set [2].

Consider `COc1ccc2ccc(=O)oc2c1` [HERNIARIN], for which the figures for the residual activity in data set [1] and in data set [2] were 148.3% and 104.5%, respectively.

Consider `COc1ccc([C@@H]2CC(=O)c3c(O)cc(O)cc3O2)cc1O` [HESPERETIN], for which the results for the residual activity in data set [1] and in data set [2] were 98.42% and 113.3%, respectively.

`COc1ccc([C@@H]2CC(=O)c3c(O)cc(O[C@@H]4O[C@H](CO[C@@H]5O[C@@H](C)[C@H](O)[C@@H](O)[C@H]5O)[C@@H](O)[C@H](O)[C@H]4O)cc3O2)cc1O` [HESPERIDIN]: the residual activity is listed as 106.1% in data set [1] and 110.2% in data set [2].

As to `CC1(C)S[C@@H]2[C@H](N3C(=O)[C@@H](c4ccccc4)NC3(C)C)C(=O)N2[C@H]1C(=O)[O-].[K+]` [HETACILLIN POTASSIUM], the residual activity was determined as 81.9% in data set [1] and 89.09% in data set [2].

Turning to `Oc1c(Cl)cc(Cl)c(Cl)c1Cc1c(O)c(Cl)cc(Cl)c1Cl` [HEXACHLOROPHENE], the figures for the residual activity in data set [1] and in data set [2] were 7.55% and 3.11%, respectively.

Take `C[N+](C)(C)CCCCCC[N+](C)(C)C.[Br-].[Br-]` [HEXAMETHONIUM BROMIDE]: the results for the residual activity in data set [1] and in data set [2] were 76.07% and 77.59%, respectively.

On to `CC[C@H](c1ccc(O)cc1)[C@@H](CC)c1ccc(O)cc1` [HEXESTROL], for which the residual activity in data set [1] turned out to be 46.62%; in data set [2], 43.21%.

For the compound `CCCCC(CC)CN1CN(CC(CC)CCCC)CC(C)(N)C1` (stereo not given) [HEXETIDINE], the residual activity in data set [1] worked out at 75.93%; in data set [2] it was 102.1%.

As to `CCCCCCc1ccc(O)cc1O` [HEXYLRESORCINOL], the residual activity in data set [1] was 115.5%; in data set [2], 84.11%.

As to `C[N+]1(C)[C@@H]2CC[C@H]1C[C@@H](OC(=O)C(O)c1ccccc1)C2.[Br-]` (stereo not given in full) [HOMATROPINE METHYLBROMIDE], the results for the residual activity in data set [1] and in data set [2] were 77.55% and 73.94%, respectively.

`CC[n+]1c(-c2ccccc2)c2cc(N)ccc2c2ccc(N)cc21.[Br-]` [HOMIDIUM BROMIDE]: the residual activity in data set [1] is recorded as 98.94%; in data set [2], 100.7%.

`COC(=O)C[C@H]1C(C)(C)C(OC(C)=O)[C@]2(O)C=C3C4CC(=O)O[C@@H](c5ccoc5)[C@]4(C)CCC3[C@@]1(C)C2=O` (stereo not given in full) [HUMILIN A]: the residual activity came out at 22.34% in data set [1] and 34.35% in data set [2].

Regarding `C/C=C1\[C@H]2C=C(C)C[C@]1(N)c1ccc(=O)[nH]c1C2` [HUPERZINE A], the residual activity in data set [1] was 93.86%; in data set [2], 101.3%.

For the compound `CCN(CC)CCNc1ccc(CO)c2sc3ccccc3c(=O)c12` [HYCANTHONE], the residual activity is 79.76% in data set [1] and 100.5% in data set [2].

On to `Cl.NNc1nncc2ccccc12` [HYDRALAZINE HYDROCHLORIDE], for which the residual activity was 87.74% in data set [1] and 115.1% in data set [2].

Consider `CN1CCc2cc3c(cc2C1O)OCO3.Cl` (stereo not given) [HYDRASTININE HYDROCHLORIDE], for which the residual activity is listed as 62.32% in data set [1] and 73.39% in data set [2].

Take `NS(=O)(=O)c1cc2c(cc1Cl)NCNS2(=O)=O` [HYDROCHLOROTHIAZIDE]: the residual activity was determined as 68.94% in data set [1] and 82.24% in data set [2].

Turning to `CC(=O)OCC(=O)[C@@]1(O)CC[C@H]2[C@@H]3CCC4=CC(=O)CC[C@]4(C)[C@H]3[C@@H](O)C[C@@]21C` [HYDROCORTISONE ACETATE], the residual activity in data set [1] is 93.94%; in data set [2], 91.1%.

In the case of `CCCC(=O)O[C@]1(C(=O)CO)CC[C@H]2[C@@H]3CCC4=CC(=O)CC[C@]4(C)[C@H]3[C@@H](O)C[C@@]21C` [HYDROCORTISONE BUTYRATE], the residual activity in data set [1] is 100.3%; in data set [2] it was 98.06%.

In the case of `C[C@]12CCC(=O)C=C1CC[C@@H]1[C@@H]2[C@@H](O)C[C@@]2(C)[C@H]1CC[C@]2(O)C(=O)COC(=O)CCC(=O)O` [HYDROCORTISONE HEMISUCCINATE ANHYDROUS], the residual activity in data set [1] is 93.98%; in data set [2], 101.8%.

As for `C[C@]12CCC(=O)C=C1CC[C@@H]1[C@@H]2[C@@H](O)C[C@@]2(C)[C@H]1CC[C@]2(O)C(=O)CO` [HYDROCORTISONE], the residual activity came out at 98.24% in data set [1] and 113.8% in data set [2].

As for `Br.COc1c2c(cc3c1OCO3)CCN(C)C2` [HYDROCOTARNINE HYDROBROMIDE], the residual activity in data set [1] came to 99.81%; in data set [2] it was 89.75%.

Regarding `COc1c2c(cc3c1OCO3)CCN(C)C2` [HYDROCOTARNINE], the residual activity in data set [1] stood at 77.76%; in data set [2], 98.91%.

For the compound `NS(=O)(=O)c1cc2c(cc1C(F)(F)F)NCNS2(=O)=O` [HYDROFLUMETHIAZIDE], the residual activity came out at 82.22% in data set [1] and 85.97% in data set [2].

`CC(C)/C(O)=C1/C(=O)O[C@@H](c2ccoc2)[C@]2(C)C(O)[C@@H](O)[C@@]34OC5(C)OC67CC(C)(C(O)[C@]6(O)[C@@H](O)[C@]3(O5)C12)[C@H](CC(=O)O)[C@]74C` (stereo not given in full) [HYDROLYSIS PRODUCT OF BUSSEIN]: the residual activity in data set [1] was found to be 52.29%; in data set [2], 78.08%.

Regarding `CC[C@H]1CN2CC[C@H]1C[C@@H]2[C@@H](O)c1ccnc2ccc(OC)cc12` [HYDROQUINIDINE], the residual activity was determined as 77.48% in data set [1] and 96.11% in data set [2].

Take `Oc1ccc(O)cc1` [HYDROQUINONE]: the residual activity in data set [1] worked out at 112.9%; in data set [2] it was 93.82%.

Take `Br.CC(N)Cc1ccc(O)cc1` (stereo not given) [HYDROXYAMPHETAMINE HYDROBROMIDE]: the residual activity in data set [1] is 85.8%; in data set [2], 84.1%.

For the compound `CCN(CCO)CCCC(C)Nc1ccnc2cc(Cl)ccc12.O=S(=O)(O)O` (stereo not given) [HYDROXYCHLOROQUINE SULFATE], the residual activity in data set [1] is 90.44%; in data set [2] it was 90.84%.

With `CCCCCC(=O)O[C@]1(C(C)=O)CC[C@H]2[C@@H]3CCC4=CC(=O)CC[C@]4(C)[C@H]3CC[C@@]21C` [HYDROXYPROGESTERONE CAPROATE], the residual activity in data set [1] is recorded as 40.59%; in data set [2] it was 55.76%.

Regarding `Cc1cccc(C(=O)O)c1O` [HYDROXYTOLUIC ACID], the figures for the residual activity in data set [1] and in data set [2] were 125.2% and 110.2%, respectively.

For the compound `COc1ccc2c(C)cc(=O)oc2c1` [HYMECROMONE METHYL ETHER], the residual activity in data set [1] amounted to 109.2%; in data set [2], 127.1%.

With `O=c1[nH]cnc2nc[nH]c12` [HYPOXANTHINE], the residual activity in data set [1] amounted to 92.05%; in data set [2], 92.8%.

Turning to `CC(C)Cc1ccc(C(C)C(=O)O)cc1` (stereo not given) [IBUPROFEN], the values for the residual activity in data set [1] and in data set [2] were 111.7% and 98.25%, respectively.

As to `COc1ccc(-c2oc3c(CC=C(C)C)c(O[C@@H]4O[C@H](CO)[C@@H](O)[C@H](O)[C@H]4O)cc(O)c3c(=O)c2O[C@@H]2O[C@@H](C)[C@H](O)[C@@H](O)[C@H]2O)cc1` [ICARIIN], the residual activity in data set [1] is on record as 212.5%; in data set [2] it was 126.8%.

By residual activity is commonly meant the signal under treatment as a percentage of the control signal.
